Test results published in publication PMC6512958 (Hypertension (Dallas, Tex. : 1979), 2019).

Legend:
human MasR = experiment: cAMP production in HEK293 cells overexpressing human MasR; format: cell-based; details: 10^-7, 10^-6 and 10^-5 M, 10 min; RIA; vs no treatment; Figure 2B
normal canines = format: in vivo, male mongrel dogs; details: IV infusion 8.66 pmol/kg/min
[1] = test system: diabetic mice and rats overexpressing the mouse Ren2-gene; details: long-term treatment, cited from earlier work
rodents = details: ANG1-7/MasR, rodents / diet-induced obesity; cited from earlier work
[2] = cited from earlier work
human pGC-A = experiment: cGMP production in HEK293 cells overexpressing human pGC-A; format: cell-based; details: 10^-10, 10^-8 and 10^-6 M, 10 min; RIA; vs no treatment; Figure 2A
humans with stable HF = details: chronic subcutaneous BNP, human HF; cited from earlier work
HTN = details: cited from earlier work

What does the source list for Angiotensin 1-7 [ANG1–7]?
cAMP production (MasR activation) (human MasR): significantly increasing concentrations of cAMP production; reduction in MAP compared with BNP and NPA7 (normal canines; Figure 4A): modest; mean arterial pressure (MAP), during drug infusion (normal canines; n=5 (ANG1-7), Figure 4A): did not reduce MAP; cardiomyocyte hypertrophy, apoptosis and fibrosis ([1]; diabetic mice and rats overexpressing the mouse Ren2-gene): prevented; cardiac function in diabetic mice [1]: significantly improved; obesity-induced HTN and brown adipocyte differentiation (rodents): protection from obesity-induced HTN in rodents and induction of brown adipocyte differentiation; half-life time [2]: extremely short; in vivo degradation [2]: rapid in vivo degradation

What does the source list for B-type natriuretic peptide [BNP]?
cGMP production (pGC-A activation) (human pGC-A): significantly increasing concentrations of cGMP production; mean arterial pressure (MAP) (normal canines; BNP n=5, NPA7 n=6, Figure 4A): reduced MAP significantly; symptoms and myocardial structure and function (humans with stable HF): improved symptoms and myocardial structure and function

For sacubitril/valsartan, which “efficacy in HTN” value (HTN) is on record?
Its value is “demonstrated efficacy in HTN”.
